# Reference: PubChem BioAssay (NCI)
#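 Five compound concentrations were applied to cells in 96-well plates for 48 hours; endpoints were derived by simple linear interpolation of the resulting dose-response curve. The concentration for full growth arrest is given as TGI.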
# What was measured:
# Assay in all cases: NCI tumour cell line growth inhibition, 48 h
# 786-0 renal = system: 786-0 renal
# A498 renal = system: A498 renal
# A549 NSCLC = system: A549 NSCLC
# ACHN renal = system: ACHN renal
# CAKI-1 renal = system: CAKI-1 renal
# DLD-1 colon = system: DLD-1 colon
# DMS 114 small cell lung = system: DMS 114 small cell lung
# DMS 273 small cell lung = system: DMS 273 small cell lung
# EKVX NSCLC = system: EKVX NSCLC
# HCC-2998 colon = system: HCC-2998 colon
# HCT-116 colon = system: HCT-116 colon
# HCT-15 colon = system: HCT-15 colon
# HOP-62 NSCLC = system: HOP-62 NSCLC
# HT29 colon = system: HT29 colon
# IGROV1 ovarian = system: IGROV1 ovarian
# KM12 colon = system: KM12 colon
# LOX IMVI melanoma = system: LOX IMVI melanoma
# M14 melanoma = system: M14 melanoma
# MALME-3M melanoma = system: MALME-3M melanoma
# MOLT-4 leukemia = system: MOLT-4 leukemia
# NCI-H226 lung = system: NCI-H226 lung
# NCI-H23 lung = system: NCI-H23 lung
# NCI-H460 lung = system: NCI-H460 lung
# NCI-H522 lung = system: NCI-H522 lung
# OVCAR-4 ovarian = system: OVCAR-4 ovarian
# OVCAR-5 ovarian = system: OVCAR-5 ovarian
# OVCAR-8 ovarian = system: OVCAR-8 ovarian
# RXF 393 renal = system: RXF 393 renal
# RXF-631 renal = system: RXF-631 renal
# SF-268 CNS = system: SF-268 CNS
# SF-539 CNS = system: SF-539 CNS
# SK-MEL-2 melanoma = system: SK-MEL-2 melanoma
# SK-MEL-28 melanoma = system: SK-MEL-28 melanoma
# SK-MEL-5 melanoma = system: SK-MEL-5 melanoma
# SK-OV-3 ovarian = system: SK-OV-3 ovarian
# SN12C renal = system: SN12C renal
# SNB-19 CNS = system: SNB-19 CNS
# SNB-78 CNS = system: SNB-78 CNS
# SR leukemia = system: SR leukemia
# SW-620 colon = system: SW-620 colon
# TK-10 renal = system: TK-10 renal
# U251 CNS = system: U251 CNS
# UACC-257 melanoma = system: UACC-257 melanoma
# UACC-62 melanoma = system: UACC-62 melanoma
# UO-31 renal = system: UO-31 renal
# XF 498 CNS = system: XF 498 CNS
# CCRF-CEM leukemia = system: CCRF-CEM leukemia
# COLO 205 colon = system: COLO 205 colon
# HOP-18 NSCLC = system: HOP-18 NSCLC
# K-562 leukemia = system: K-562 leukemia
# LXFL 529 NSCLC = system: LXFL 529 NSCLC
# M19-MEL melanoma = system: M19-MEL melanoma
# OVCAR-3 ovarian = system: OVCAR-3 ovarian
# RPMI-8226 leukemia = system: RPMI-8226 leukemia
# SF-295 CNS = system: SF-295 CNS
structure (smiles),measurement,setting,value
O=C(NCC#CCO)C(F)(F)F,TGI,786-0 renal,> 100 µM
same,TGI,A498 renal,> 100 µM
same,TGI,A549 NSCLC,> 100 µM
same,TGI,ACHN renal,> 100 µM
same,TGI,CAKI-1 renal,> 100 µM
same,TGI,DLD-1 colon,> 100 µM
same,TGI,DMS 114 small cell lung,> 100 µM
same,TGI,DMS 273 small cell lung,> 100 µM
same,TGI,EKVX NSCLC,> 100 µM
same,TGI,HCC-2998 colon,> 100 µM
same,TGI,HCT-116 colon,> 100 µM
same,TGI,HCT-15 colon,> 100 µM
same,TGI,HOP-62 NSCLC,> 100 µM
same,TGI,HT29 colon,> 100 µM
same,TGI,IGROV1 ovarian,> 100 µM
same,TGI,KM12 colon,> 100 µM
same,TGI,LOX IMVI melanoma,> 100 µM
same,TGI,M14 melanoma,> 100 µM
same,TGI,MALME-3M melanoma,> 100 µM
same,TGI,MOLT-4 leukemia,> 100 µM
same,TGI,NCI-H226 lung,> 100 µM
same,TGI,NCI-H23 lung,> 100 µM
same,TGI,NCI-H460 lung,> 100 µM
same,TGI,NCI-H522 lung,> 100 µM
same,TGI,OVCAR-4 ovarian,> 100 µM
same,TGI,OVCAR-5 ovarian,> 100 µM
same,TGI,OVCAR-8 ovarian,> 100 µM
same,TGI,RXF 393 renal,> 100 µM
same,TGI,RXF-631 renal,> 100 µM
same,TGI,SF-268 CNS,> 100 µM
same,TGI,SF-539 CNS,> 100 µM
same,TGI,SK-MEL-2 melanoma,> 100 µM
same,TGI,SK-MEL-28 melanoma,> 100 µM
same,TGI,SK-MEL-5 melanoma,> 100 µM
same,TGI,SK-OV-3 ovarian,> 100 µM
same,TGI,SN12C renal,> 100 µM
same,TGI,SNB-19 CNS,> 100 µM
same,TGI,SNB-78 CNS,> 100 µM
same,TGI,SR leukemia,> 100 µM
same,TGI,SW-620 colon,> 100 µM
same,TGI,TK-10 renal,> 100 µM
same,TGI,U251 CNS,> 100 µM
same,TGI,UACC-257 melanoma,> 100 µM
same,TGI,UACC-62 melanoma,> 100 µM
same,TGI,UO-31 renal,> 100 µM
same,TGI,XF 498 CNS,> 100 µM
COC(=O)C(=O)C(C(=O)C(=O)Nc1cc([N+](=O)[O-])ccc1[N+](=O)[O-])c1nc2ccc(C(=O)c3ccccc3)cc2[nH]c1=O (configuration not stated),TGI,786-0 renal,> 100 µM
same,TGI,A498 renal,63.4 µM
same,TGI,A549 NSCLC,> 100 µM
same,TGI,ACHN renal,> 100 µM
same,TGI,CAKI-1 renal,> 100 µM
same,TGI,CCRF-CEM leukemia,83.4 µM
same,TGI,COLO 205 colon,> 100 µM
same,TGI,DLD-1 colon,> 100 µM
same,TGI,DMS 114 small cell lung,66.5 µM
same,TGI,DMS 273 small cell lung,> 100 µM
same,TGI,EKVX NSCLC,> 100 µM
same,TGI,HCC-2998 colon,> 100 µM
same,TGI,HCT-116 colon,> 100 µM
same,TGI,HCT-15 colon,> 100 µM
same,TGI,HOP-18 NSCLC,95.1 µM
same,TGI,HOP-62 NSCLC,> 100 µM
same,TGI,HT29 colon,> 100 µM
same,TGI,IGROV1 ovarian,> 100 µM
same,TGI,K-562 leukemia,91.3 µM
same,TGI,KM12 colon,> 100 µM
same,TGI,LOX IMVI melanoma,> 100 µM
same,TGI,LXFL 529 NSCLC,57.9 µM
same,TGI,M14 melanoma,98.8 µM
same,TGI,M19-MEL melanoma,> 100 µM
same,TGI,MALME-3M melanoma,> 100 µM
same,TGI,MOLT-4 leukemia,61.5 µM
same,TGI,NCI-H226 lung,89 µM
same,TGI,NCI-H23 lung,70.4 µM
same,TGI,NCI-H460 lung,> 100 µM
same,TGI,NCI-H522 lung,70.6 µM
same,TGI,OVCAR-3 ovarian,> 100 µM
same,TGI,OVCAR-4 ovarian,> 100 µM
same,TGI,OVCAR-5 ovarian,70.5 µM
same,TGI,OVCAR-8 ovarian,> 100 µM
same,TGI,RPMI-8226 leukemia,62.4 µM
same,TGI,RXF-631 renal,> 100 µM
same,TGI,SF-268 CNS,> 100 µM
same,TGI,SF-295 CNS,> 100 µM
same,TGI,SF-539 CNS,> 100 µM
same,TGI,SK-MEL-2 melanoma,> 100 µM
same,TGI,SK-MEL-5 melanoma,45.9 µM
same,TGI,SK-OV-3 ovarian,> 100 µM
same,TGI,SN12C renal,> 100 µM
same,TGI,SNB-19 CNS,> 100 µM
same,TGI,SNB-78 CNS,58.6 µM
same,TGI,SR leukemia,60.2 µM
same,TGI,SW-620 colon,> 100 µM
same,TGI,U251 CNS,> 100 µM
same,TGI,UACC-257 melanoma,> 100 µM
same,TGI,UO-31 renal,67.5 µM
same,TGI,XF 498 CNS,30.9 µM
